Assay results taken from patent publication US20240350660A1, “Compositions and Methods for Increasing Bioavailability Using Cyclodextrin Modification” (priority 2021, published 2024).

Legend:
[1] = test system: mouse model of diabetes (streptozotocin-induced); assay: Streptozotocin-induced diabetes mouse model, blood glucose 4 hours post treatment; format: in vivo, mice (C57BL/6)
Protocol: Eight week old male C57BL/6 strain of mice were used. The mice were fed on standard diet and water ad libitum. Diabetes was induced by intraperitoneal injection of 60 mg/kg of a freshly prepared streptozotocin (STZ) dissolved in 0.1 M cold citrate buffer at a pH of 4.5. Body weight, food, and fluid intake were monitored daily. Induction was continued for 7 consecutive days until chronic polydipsia and polyuria was established. Post-prandial blood glucose levels were measured by blood glucose strips, and mice with levels higher than 400 mg/dL were defined as chronically diabetic and chosen for experiments. Test animals were treated with product by oral gavage. For a given product, n=6 animals were treated. Blood samples for whole blood glucose were obtained from the tail tip 4 hours post treatment, and blood glucose levels were measured by Roche blood glucose strips. Means and standard error of the means were calculated. Differences in mean post-prandial blood glucose 4 hours post treatment of animals treated with product and untreated control […] diabetic animals (n=6) were calculated. Relative clinical effects of the products tested were determined by comparing the difference in blood glucose of treated relative to untreated controls.

SARS-COV-2 [2] = assay: Human ACE2 transgenic COVID-19 mouse model (body weight, survival); format: in vivo, hACE2 transgenic mice; details: Daily
SARS-COV-2 [3] = assay: SARS-COV-2 replication in Vero E6 cells in vitro (viral load by RT-PCR); format: cell-based; details: Severe acute respiratory syndrome coronavirus 2, Vero C1008; FIG. 3; cells treated at 1 μM final concentration; complexes at 1:1 molar ratio; read-out: Inhibition of SARS-COV-2 replication over untreated
[4] = 200 mg/kg, Pretreatment to Day 7
[5] = 25 mg/kg oral gavage, n=6, glucose levels given in mg/dL

## Insulin
[1]; 0.5 IU sc
  Difference in 4 h Blood Glucose vs. Untreated: 203.2
[1]; 1 IU sc
  Difference in 4 h Blood Glucose vs. Untreated: 236.2

## CCC(CC)COC(=O)[C@H](C)N[P@](=O)(OC[C@H]1O[C@@](C#N)(c2ccc3c(N)ncnn23)[C@H](O)[C@@H]1O)Oc1ccccc1 [Remdesivir]
SARS-COV-2 [2]; 50 mg/kg, Day 1 post-treatment to 7
  Survival: 100%
SARS-COV-2 [2]; [4]
  Survival: 100%

## Cc1cnc(C(=O)NCCc2ccc(S(=O)(=O)NC(=O)NC3CCCCC3)cc2)cn1 [Glipizide]
[1]; 5 mg/kg oral gavage, n=6
  Difference in 4 h Blood Glucose vs. Untreated: 198.0

## CN(C)C(=N)N=C(N)N [Metformin]
[1]; 200 mg/kg oral
  Difference in 4 h Blood Glucose vs. Untreated: 173.9
[1]; 250 mg/kg oral gavage, n=6
  Difference in 4 h Blood Glucose vs. Untreated: 181.7

## O=c1c(O)c(-c2ccc(O)c(O)c2)oc2cc(O)cc(O)c12 [Quercitin]
SARS-COV-2 [2]; 66 mg/kg, Pretreatment to Day 7
  Survival: 80%
SARS-COV-2 [2]; [4]
  Survival: 100%

## COc1cc(/C=C/C(=O)CC(=O)/C=C/c2ccc(O)c(OC)c2)ccc1O [Unconjugated Curcumin, curcumin]
[1]; 5 mg/kg oral gavage, n=6
  Difference in 4 h Blood Glucose vs. Untreated: 29.8
[1]; [5]
  Difference in 4 h Blood Glucose vs. Untreated: 60.22

## OC[C@H]1O[C@@H]2O[C@H]3[C@H](O)[C@@H](O)[C@@H](O[C@H]4[C@H](O)[C@@H](O)[C@@H](O[C@H]5[C@H](O)[C@@H](O)[C@@H](O[C@H]6[C@H](O)[C@@H](O)[C@@H](O[C@H]7[C@H](O)[C@@H](O)[C@@H](O[C@H]8[C@H](O)[C@@H](O)[C@@H](O[C@H]1[C@H](O)[C@H]2O)O[C@@H]8CO)O[C@@H]7CO)O[C@@H]6CO)O[C@@H]5CO)O[C@@H]4CO)O[C@@H]3CO [Betacyclodextrin alone, beta-cyclodextrin]
[1]; [5]
  Difference in 4 h Blood Glucose vs. Untreated: 35.46

## C[C@@H]1O[C@@H](OC[C@H]2O[C@@H](Oc3c(-c4ccc(O)c(O)c4)oc4cc(O)cc(O)c4c3=O)[C@H](O)[C@@H](O)[C@@H]2O)[C@H](O)[C@H](O)[C@H]1O [rutin]
SARS-COV-2 [3]
  inhibition at 1 µM: ~25%
